Reference: PMC2731040 (BMC Clinical Pharmacology, 2009)
Entries after “also recorded” stand apart in the source; their conditions may differ.

Key:
[1] = Plasma pharmacokinetics of cocaine and benzoylecgonine after IV cocaine-d5 infusion; conditions: for Cmax: cocaine-d5 IV 0.5 mg/kg over 10 min then 2 mg/kg over 4 h; for Cmax / (t1/2)z / AUC (0-∞) / AUC(0-t) / AUCext / Tmax / λz: mean ± SD
Method: In this open-label, unblinded study, a 0.5 mg/kg intravenous loading dose of cocaine-d5 HCl over 10 minutes was followed by a slow 4 hour constant rate cocaine-d5 infusion of 2.0 mg/kg(~175 mg for a 70 kg person). […] When this method of cocaine administration is utilized, a larger dose can be given over a longer period of time and approximates frequently reported patterns of cocaine use. This method also allowed for close monitoring and termination of the infusion if untoward psychiatric or cardiovascular effects occurred.
For both cocaine infusions (sessions 1 and 2), plasma samples for cocaine and metabolites (~6 ml) were obtained 5 minutes before and 10 minutes, 0.5, 1, 1.5, 2, 4, 4.25, 4.5, 5, 6, 8, 12, 21, 27, 33, and 45 hours after each cocaine infusion.
Plasma concentrations of cocaine and benzoylecgonine were measured in our laboratory using a method we developed. The method allows for simultaneous determination of cocaine, benzoylecgonine, and deuterium-labeled analogs [cocaine-d5 and benzoylecgonine-d5 (BE-d5)] by using combined gas chromatography-mass spectrometry (GC-MS). Differently labeled stable isotope analogs were used as internal standards. The calibration curves were from 5 to 2,000 ng/mL for cocaine-d5 and 10 to 2,000 ng/mL for BE-d5. Lower limits of quantitation (LLOQ) were 5 ng/ml (cocaine-d5) and 10 ng/ml (BE-d5) in plasma. Qualitative urine benzoylecgonine was measured by Northwest Toxicology Laboratory, Salt Lake City, Utah, using the Roche Diagnostics Online® immunoassay.
The plasma concentration-time profiles for cocaine and benzoylecgonine (BE) were analyzed by non-compartmental methods, utilizing the pharmacokinetic data analysis program WinNonlin Pro, version 3.0 [31].
The area under the plasma concentration-time curve was calculated using the linear trapezoidal rule up to the maximum plasma concentration, and thereafter using the logarithmic trapezoidal rule to the last measurable plasma concentration. The remaining area was extrapolated to infinity by dividing the last appropriate plasma concentration by the terminal exponential rate constant.
Maximum plasma concentration (Cmax) and time of maximum plasma concentration (Tmax) were determined by visual inspection of data. "Terminal" exponential half-life [(t1/2)z] was calculated from log-linear regression of "terminal" exponential phase data points. Cocaine clearance (CL) and terminal exponential volume of distribution (Vz) were calculated by conventional equations: CL = [Dose/Area under the curve (AUC)0-∞] and Vz = CL/λz, respectively, where λz ("terminal" exponential rate constant) = ln2/(t1/2)z. […] Amount of BE in urine samples was calculated by multiplying concentration by volume.

[2] = Selegiline and metabolites excreted in 24 hour urine collections; assay type: in vivo, human; design: unit not given here; conditions: Mean ± SD, N = 12
Method: (§1) When subjects were in the GCRC, all urine was collected and volumes recorded. Following each cocaine infusion, urine was collected in fractions from 0 to 24, 24 to 48, and 48 to 72 hours (timed from the start of the infusion). Samples were then frozen at -70°C until analyzed. […] A qualitative screen for drugs of abuse was obtained every other day for the entire study period.
(§2) All analyses employed a one-factor repeated-measures analysis of variance (ANOVA), with all parameters analyzed as their logarithmic (natural) transforms. If a day effect was found between days 9, 11, 12, and 13, a Tukey multiple comparison procedure was employed posthoc to compare the days in pairs. A test for linear trend was included. All probability estimates presented are based on the Type III sums of squares.

[3] = tested on: nondependent cocaine-experienced subjects; experiment: Adverse events and cardiovascular safety monitoring; assay type: in vivo, human; conditions: STS 6 mg/24 hours
Method: (§3) Heart rate, blood pressure, respiration rate, skin and core temperature were recorded at specific times during the study. During infusions, measures were obtained pre-dose and at 0.17, 0.5, 0.75, 1, 1.5, 2, 2.5, 3, 3.5, 4, 4.25, 4.5, 5, 6, 8, 12, 18, 24, 36, 48, and 72 hours after dosing. The electrocardiogram was monitored continuously during the infusion and for 4 hours after the termination of the intravenous cocaine infusion. EKG tracings were recorded at each data collection point.

[4] = tested on: nondependent cocaine-experienced subjects; experiment: Subjective measures (verbal ratings, visual analog scales, POMS) during cocaine challenge sessions; assay type: in vivo, human
From the text: Verbal ratings of global intoxication and craving (on a scale of 0 to 100) were obtained at the same time points as the physiologic measures, with 0 representing no drug effect and 100 representing the highest level of intoxication or craving.
Visual analog scales were used to rate the degree of drug liking by moving an arrow along a 10 cm line marked at opposite ends as 0 (not at all) and 100 (extreme) using a hand-held computer (Tandy 102). Items rated on the visual analog scale included "good drug effect" and "bad drug effect," and were obtained prior to cocaine infusion and at 0.17, 0.5, 0.75, 1, 1.5, 2, 2.5, 3, 3.5, 4, 4.25, 4.5, 5, 6, and 8 hours after dosing.
The Profile of Mood States (POMS) assessed mood changes in Anger, Confusion, Fatigue, Tension, and Vigor on a scale from 0 to 4, where 0 indicated "no effect" and 4 indicates "extremely strong". Ratings were obtained prior to cocaine infusion and at 1, 3, and 6 hours after dosing.
(§4) The time courses of physiologic and subjective data were analyzed by repeated measures analysis of variance (ANOVA). Treatment conditions (Sessions 1 and 2) and observation times (hours post-dose) were considered within-subject factors. Change scores (post-dose minus pre-dose values) were used in most analyses. Raw score were used where indicated. After a significant F test, pairwise comparisons of treatment conditions were performed using the least squares means analysis. Peak effects within a session were determined for each subject and each variable and analyzed using a one-factor repeated measures ANOVA. Effects were considered statistically significant at p = 0.05. Data were adjusted for sphericity using the Huynh-Feldt adjustment factor. Huynh-Feldt-corrected significance values are reported.

[5] = tested on: nondependent cocaine-experienced subjects; experiment: Physiologic measures during cocaine challenge sessions; assay type: in vivo, human; conditions: session 2 vs session 1; peak effects and effects across time
Method: Heart rate, systolic and diastolic blood pressure were measured using a cardiovascular monitor (Dinamap by Critikon, Vital Signs Monitor 1846 SX). Rate pressure product was calculated as the product of systolic blood pressure and heart rate. Respiration rate was measured by counting the number of inhalations per minute. These vital signs were determined with the patient in a supine position for at least 10 minutes.
as §3, §4

noradrenergic tone = experiment: Urinary MHPG-S excretion (surrogate for noradrenergic tone, MAO-A metabolite); assay type: in vivo, human
From the text: The interactions between MAO-A inhibitors and cocaine administered are largely unexplored. […] Therefore, measurement of dopaminergic and noradrenergic tone may be important in predicting toxic events. We measured dopaminergic tone with the surrogate marker of plasma HVA, the major brain metabolite of dopamine, and serum levels of prolactin, a hormone whose secretion is inhibited by dopamine. The surrogate for noradrenergic tone was urine concentrations of MHPG-S. In order to assess the degree of MAO-A and MAO-B inhibition, we assayed concentrations of a substrate of MAO-B, phenylethylamine (PEA). PEA would be expected to increase with MAO-B inhibition, and concentrations of MHPG-S, which is a metabolite of norepinephrine produced by MAO-A primarily in the brain [20], would be expected to decrease.
as §1
Concentrations of MHPG-S in urine were determined using LC-MS/MS [29]. […] As urinary creatinine excretion is directly related to glomerular filtration and renal blood flow, and urinary creatinine excretion is relatively constant (~1 gm/day), it can be used to estimate concentrations of a substance during a 24 hour urine collection period. Using ratios of the concentrations of MHPG-S to creatinine obtained from assays of these spot urine samples, MGPG-S concentrations during the outpatient period (when subjects would be unlikely to provide accurate 24 hour urine collections) were compared to those from urine samples on inpatient days.

[6] = Trough plasma concentrations of selegiline and metabolites; assay type: in vivo, human; conditions: days 9, 11, 12, and 13 of STS; p for linear trend <0.001 (l-methamphetamine) and <0.01 (l-amphetamine)
From the text: as §2

[7] = Pre Selegiline (session 1), plasma
[8] = With Selegiline (session 2), plasma
[9] = 0–24 hours after cocaine (day 11), STS 6 mg/24 hours
[10] = 24–48 hours after cocaine (day 12), STS 6 mg/24 hours
[11] = 48–72 hours after cocaine (day 13), no patch applied at 9 AM on day 14

CN1[C@H]2CC[C@@H]1[C@@H](C(=O)O)[C@@H](OC(=O)c1ccccc1)C2 [Benzoyl-ecgonine, benzoylecgonine]
Cmax [1, 7]: 1045 ± 180 ng/mL | (t1/2)z [1, 7]: 8.63 ± 5.36 h | AUC (0-∞) [1, 7]: 13600 ± 3820 ng·h/mL | AUC(0-t) [1, 7]: 13000 ± 3030 ng·h/mL | AUCext [1, 7]: 3.45 ± 6.45% | Tmax [1, 7]: 4.79 ± 0.50 h | λz [1, 7]: 0.0928 ± 0.023 h⁻¹ | (t1/2)z [1, 8]: 7.52 ± 1.82 h | AUC (0-∞) [1, 8]: 13200 ± 4180 ng·h/mL | AUC(0-t) [1, 8]: 12900 ± 3760 ng·h/mL | AUCext [1, 8]: 2.21 ± 2.24% | Tmax [1, 8]: 5.04 ± 0.65 h | λz [1, 8]: 0.0971 ± 0.024 h⁻¹ | Cmax ([1]; With Selegiline (session 2, after one week STS 6 mg/24 hours), plasma): 957 ± 184 ng/mL | BE AUC relative to that of cocaine ([1]; plasma, after IV cocaine-d5 infusion): approximately 5.9 times

C#CCNC(C)Cc1ccccc1 (centres unmarked) [Desmethylselegiline, n-desmethylselegiline]
Excreted in the 24 Hour Urine [2, 9]: 0.184 ± 0.128 | Excreted in the 24 Hour Urine [2, 10]: 0.188 ± 0.162 | Excreted in the 24 Hour Urine [2, 11]: 0.082 ± 0.086

C#CCN(C)[C@H](C)Cc1ccccc1 [Selegiline, selegiline]
Adverse events ([3]; cocaine-d5 IV 2.5 mg/kg over 4 hours, 2.5 mg/kg): One subject reported erectile dysfunction; also recorded: One subject experienced anxiety and one reported insomnia | Cardiovascular adverse effects (orthostatic vital signs and cardiovascular monitoring) ([3]; selegiline maintenance phase): no adverse cardiovascular effects | Excreted in the 24 Hour Urine [2, 9]: 0.109 ± 0.073 | Excreted in the 24 Hour Urine [2, 10]: 0.145 ± 0.138 | Excreted in the 24 Hour Urine [2, 11]: 0.063 ± 0.097 | Verbal ratings of craving, second session vs first ([4]; between 1.5 and 4.5 hours after cocaine, condition × time significant): lower | POMS anger, tension and total score scales across time, second session vs first ([4]; second cocaine session (after selegiline)): significantly different (lower) | Effect of selegiline on cocaine-induced physiological effects [5]: Neither peak effects (Table 3) nor physiological effects across time were affected | Effect of selegiline on cocaine or BE plasma pharmacokinetics ([1]; after removal of the two outliers, STS 6 mg/24 hours for one week): No effect | Total Amount of MHPG-S Excreted in the 24 Hour Urine Collection (noradrenergic tone; Day 4–5, 0–24 hr Postselegiline): 1.43 ± 0.40 mg | Total Amount of MHPG-S Excreted in the 24 Hour Urine Collection (noradrenergic tone; Day 11–12 Selegiline Phase 1st Day After Cocaine): 1.09 ± 0.23 mg | Total Amount of MHPG-S Excreted in the 24 Hour Urine Collection (noradrenergic tone; Day 12–13 Selegiline Phase 2nd Day After Cocaine): 1.07 ± 0.40 mg | Total Amount of MHPG-S Excreted in the 24 Hour Urine Collection (noradrenergic tone; Day 13–14 Selegiline Phase 3rd Day After Cocaine, no patch applied at 9 AM on Day 14): 1.01 ± 0.33 mg

CN[C@H](C)Cc1ccccc1 [l-Methamphetamine, l-methamphetamine]
Excreted in the 24 Hour Urine [2, 9]: 6.26 ± 2.28 | Excreted in the 24 Hour Urine [2, 10]: 8.51 ± 5.69 | Excreted in the 24 Hour Urine [2, 11]: 4.83 ± 1.55 | Trough plasma concentrations over time [6]: increased over time
